Laboratory results reported in patent publication US6403586B1, “Pyridazine derivatives and drugs containing the same as the active ingredient” (Kowa Co., Ltd., priority 1998, dated 2002).

Row | SMILES | melting point
1 | CCOC(=O)c1cc(-c2ccc(OC)cc2)nn(Cc2ccc(Cl)cc2Cl)c1=O [Example 24, 2-(2,4-Dichlorobenzyl)-4-ethoxycarbonyl-6-(4-methoxyphenyl)-2H-pyridazin-3-one] | 135.7 to 136.3 °C
2 | COc1ccc(-c2cc(NC(=O)OC(C)C)c(=O)n(CC=Cc3ccc(Cl)cc3)n2)cc1 [Example 88, 2-(4-chlorocinnamyl)-6-(4-methoxyphenyl)-4-isopropoxycarbonylamino-2H-pyridazin-3-one] | 123.9 to 127.4 °C
3 | CNC(=S)c1cc(-c2ccc(OC)cc2)nn(CC(C)C)c1=O [Example 130, 2-isobutyl-6-(4-methoxyphenyl)-4-methylthiocarbamoyl-2H-pyridazin-3-one] | 116 to 116.6 °C
4 | CCOC(=O)c1cc(-c2ccc(OC)cc2)nn(CC=Cc2ccc(Cl)cc2)c1=O [Example 31, 2-(4-Chlorocinnamyl)-4-ethoxycarbonyl-6-(4-methoxyphenyl)-2H-pyridazin-3-one] | 127 to 127.9 °C
5 | COc1ccc(-c2cc(N)c(=O)n(Cc3ccccc3)n2)cc1 [Example 121, 4-amino-2-benzyl-6-(4-methoxyphenyl)-2H-pyridazin-3-one] | 115.1 to 115.6 °C
6 | CCOC(=O)Nc1cc(-c2ccc(OC)cc2)nn(CC=C(C)C)c1=O [Example 93, 4-ethoxycarbonylamino-6-(4-methoxy-phenyl)-2-(3-methyl-2-butenyl)-2H-pyridazin-3-one] | 130.2 to 131.2 °C
7 | COc1ccc(-c2cc(NC(C)=O)c(=O)n(CC=Cc3ccc(Cl)cc3)n2)cc1 [Example 113, 4-acetylamino-2-(4-chlorocinnamyl)-6-(4-methoxyphenyl)-2H-pyridazin-3-one] | 158.7 to 161.9 °C
8 | COc1ccc(-c2cc(NC(=O)NC(C)C)c(=O)n(Cc3ccccc3)n2)cc1 [Example 123, 2-benzyl-4-(3-isopropylureido)-6-(4-methoxyphenyl)-2H-pyridazin-3-one] | 200.2 to 201 °C
9 | CNC(=O)c1cc(-c2ccc(OC)cc2)nn(CC(=O)NCc2ccccn2)c1=O [Example 58, 6-(4-Methoxyphenyl)-4-methylcarbamoyl-2-(2-pyridylmethyl)carbamoylmethyl-2H-pyridazin-3-one] | 194.7 to 195.8 °C
10 | CNc1cc(-c2ccc(OC)cc2)nn(CC=Cc2ccc(Cl)cc2)c1=O [Example 117, 2-(4-chlorocinnamyl)-6-(4-methoxyphenyl)-4-methylamino-2H-pyridazin-3-one] | 148.4 to 149.2 °C
11 | COc1ccc(-c2cc(NS(C)(=O)=O)c(=O)n(Cc3ccccc3)n2)cc1 [Example 122, 2-benzyl-4-methanesulfonylamino-6-(4-methoxyphenyl)-2H-pyridazin-3-one] | 195 to 195.5 °C
12 | COc1ccc(-c2cc(C(N)=O)c(=O)n(CC=Cc3ccc(Cl)cc3)n2)cc1 [Example 42, 4-Carbamoyl-2-(4-chlorocinnamyl)-6-(4-methoxyphenyl)-2H-pyridazin-3-one] | 195.1 to 195.5 °C
13 | CNC(=O)c1cc(-c2ccc(OC)cc2)nn(CC(=O)NCCO)c1=O [Example 59, 2-(2-Hydroxyethyl)carbamoylmethyl-6-(4-methoxyphenyl)-4-methylcarbamoyl-2H-pyridazin-3-one] | 240.2 to 241.2 °C
14 | CNC(=O)c1cc(-c2ccc(OC)cc2)nn(CC#N)c1=O [Example 46, 2-Cyanomethyl-6-(4-methoxyphenyl)-4-methylcarbamoyl-2H-pyridazin-3-one] | 153.4 to 154.9 °C
15 | CCOC(=O)Nc1cc(-c2ccc(OC)cc2)nn(Cc2ccccc2)c1=O [Example 97, 2-benzyl-4-ethoxycarbonylamino-6-(4-methoxyphenyl)-2H-pyridazin-3-one] | 152.1 to 162.5 °C
16 | COc1ccc(-c2cc(C(=O)NCc3ccccc3)c(=O)n(C)n2)cc1 [Example 77, 4-Benzylcarbamoyl-6-(4-methoxyphenyl)-2-methyl-2H-pyridazin-3-one] | 144.8 to 145.8 °C
17 | CNC(=O)c1cc(-c2ccc(OC)cc2)nn(Cc2ccc(NC(=O)c3cccnc3)cc2)c1=O [Example 81, 6-(4-Methoxyphenyl)-4-methylcarbamoyl-2-[4-(3-pyridylcarbonylamino)benzyl]-2H-pyridazin-3-one] | 226.7 to 227.6 °C (dec.)
18 | COc1ccc(-c2cc(C(=O)NCc3ccccn3)c(=O)n(C)n2)cc1 [Example 78, 6-(4-Methoxyphenyl)-2-methyl-4-(2-pyridylmethyl)carbamoyl-2H-pyridazin-3-one] | 122.4 to 122.9 °C
19 | COc1ccc(-c2cc(C(=O)O)c(=O)n(CC=C(C)C)n2)cc1 [Example 92, 4-carboxy-6-(4-methoxyphenyl)-2-(3-methyl-2-butenyl)-2H-pyridazin-3-one] | 153.5 to 156.6 °C
20 | CNC(=O)Cn1nc(-c2ccc(OC)cc2)cc(C(=O)NC)c1=O [Example 47, 6-(4-Methoxyphenyl)-4-methylcarbamoyl-2-methylcarbamoylmethyl-2H-pyridazin-3-one] | 250.1 to 250.8 °C
21 | CNC(=O)c1cc(-c2ccc(OC)cc2)nn(CC=C(C)C)c1=O [Example 57, 6-(4-Methoxyphenyl)-2-(3-methyl-2-butenyl)-4-methylcarbamoyl-2H-pyridazin-3-one] | 103.6 to 104 °C
22 | CNC(=O)c1cc(-c2ccc(OC)cc2)nn(Cc2ccc(Cl)cc2Cl)c1=O [Example 82, 2-(2,4-Dichlorobenzyl)-6-(4-methoxy-phenyl)-4-methylcarbamoyl-2H-pyridazin-3-one] | 154.2 to 156.2 °C
23 | COc1ccc(-c2cc(C(=O)O)c(=O)n(CC=Cc3ccc(Cl)cc3)n2)cc1 [Example 86, 4-Carboxy-2-(4-chlorocinnamyl)-6-(4-methoxyphenyl)-2H-pyridazin-3-one] | 222.6 to 224 °C (dec.)
24 | CCCCOC(=O)Nc1cc(-c2ccc(OC)cc2)nn(CC=Cc2ccc(Cl)cc2)c1=O [Example 89, 4-n-butoxycarbonylamino-2-(4-chlorocinnamyl)-6-(4-methoxyphenyl)-2H-pyridazin-3-one] | 150.2 to 150.9 °C

Other lines, results leading:

Row | melting point | SMILES
25 | 98.6 to 99.3 °C | COc1ccc(-c2cc(C(=O)NCc3ccccn3)c(=O)n(CC3CC3)n2)cc1 [Example 69, 2-Cyclopropylmethyl-6-(4-methoxyphenyl)-4-(2-pyridylmethyl)carbamoyl-2H-pyridazin-3-one]
26 | 116.5 to 118 °C | CNC(=O)c1cc(-c2ccc(SC)cc2)nn(CC2CC2)c1=O [Example 65, 2-Cyclopropylmethyl-4-methylcarbamoyl-6-[4-(methylthio)phenyl]-2H-pyridazin-3-one]
27 | 110.8 to 111.3 °C | COc1ccc(-c2cc(N)c(=O)n(CC3CC3)n2)cc1 [Example 124, 4-amino-2-cyclopropylmethyl-6-(4-methoxyphenyl)-2H-pyridazin-3-one]
28 | 153.3 to 154.9 °C | COC(=O)c1cc(-c2ccc(OC)c(F)c2)nn(CC(C)C)c1=O [Example 12, 6-(3-Fluoro-4-methoxyphenyl)-2-isobutyl-4-methoxycarbonyl-2H-pyridaz in-3-one]
29 | 101.3 to 101.6 °C | CCCNC(=O)c1cc(-c2ccc(OC)cc2)nn(CC2CC2)c1=O [Example 67, 2-Cyclopropylmethyl-6-(4-methoxyphenyl)-4-n-propylcarbamoyl-2H-pyridazin-3-one]
30 | 104.2 to 105.5 °C | COC(=O)c1cc(-c2ccc(OC)c(OC)c2)nn(CC(C)C)c1=O [Example 11, 6-(3,4-Dimethoxyphenyl)-2-isobutyl-4-methoxycarbonyl-2H-pyridazin-3-one]
31 | 136.5 to 137.3 °C | COC(=O)c1cc(-c2ccc(OC)c(OC)c2)nn(CC2CC2)c1=O [Example 17, 2-Cyclopropylmethyl-6-(3,4-dimethoxyphenyl)-4-methoxycarbonyl-2H-pyridazin-3-one]
32 | 140.6 to 141.1 °C | CCOC(=O)c1cc(-c2ccc(OC)cc2)nn(C(C)C)c1=O [Example 9, 4-Ethoxycarbonyl-2-isopropyl-6-(4-methoxyphenyl)-2H-pyridazin-3-one]
33 | 109.9 to 110.2 °C | CCCNC(=O)c1cc(-c2ccc(OC)cc2)nn(CC2CCCC2)c1=O [Example 74, 2-Cyclopentylmethyl-6-(4-methoxyphenyl)-4-n-propylcarbamoyl-2H-pyridazin-3-one]
34 | 100.2 to 101.8 °C | COC(=O)c1cc(-c2ccc(SC)cc2)nn(CC2CC2)c1=O [Example 20, 2-Cyclopropylmethyl-4-methoxycarbonyl-6-[4-(methylthio)phenyl]-2H-pyridazin-3-one]
35 | 179.7 to 181.6 °C | COC(=O)c1cc(-c2ccc(OC)c(Cl)c2)nn(CC=Cc2ccc(Cl)cc2)c1=O [Example 34, 2-(4-Chlorocinnamyl)-6-(3-chloro-4-methoxyphenyl)-4-methoxycarbonyl-2H-pyridazin-3-one]
36 | 203.3 to 203.9 °C | COc1ccc(-c2cc(NS(C)(=O)=O)c(=O)n(CC3CC3)n2)cc1 [Example 126, 2-cyclopropylmethyl-4-methanesulfonylamino-6-(4-methoxyphenyl)-2H-pyridazin-3-one]
37 | 83 to 83.3 °C | CCOC(=O)c1cc(-c2ccc(OC)cc2)nn(CC(C)C)c1=O [Example 10, 4-Ethoxycarbonyl-2-isobutyl-6-(4-methoxyphenyl)-2H-pyridazin-3-one]
38 | 181.3 to 181.5 °C | COc1ccc(-c2cc(C(=O)Nc3ccncc3)c(=O)n(CC3CC3)n2)cc1 [Example 70, 2-Cyclopropylmethyl-6-(4-methoxyphenyl)-4-(4-pyridyl)carbamoyl-2H-pyridazin-3-one]
39 | 109.2 to 109.5 °C | COC(=O)c1cc(-c2ccc(OC)cc2)nn(C)c1=O [Example 1, 4-Methoxycarbonyl-6-(4-methoxyphenyl)-2-methyl-2H-pyridazin-3-one]
40 | 162.8 to 163.3 °C | COc1ccc(-c2cc(C(=O)Nc3ccccc3)c(=O)n(CC3CC3)n2)cc1 [Example 71, 2-Cyclopropylmethyl-6-(4-methoxyphenyl)-4-phenylcarbamoyl-2H-pyridazin-3-one]
41 | 119.1 to 119.6 °C | CCOC(=O)Nc1cc(-c2ccc(OC)cc2)nn(CC2CC2)c1=O [Example 95, 2-cyclopropylmethyl-4-ethoxycarbonylamino-6-(4-methoxyphenyl)-2H-pyridazin-3-one]
